In PubChem BioAssay AID1259407 (Chemical Carcinogenesis Research Information System (CCRIS), 2018):
Calls of active or inactive are those of the source. The rule behind the calls is not given here.

Test system: CCRIS mutagenicity, Ames/micronucleus/aberration tests
Test: CCRIS mutagenicity studies

Compound: CCCCC(CC)COC(=O)c1ccccc1C(=O)OCC(CC)CCCC (stereo not drawn)
- mutagenic call (Test System: AMES SALMONELLA TYPHIMURIUM, Strain/Indicator: TA1535, Metabolic Activation: RAT LIVER S-9, PHENOBARBITAL AND BETA-NAPHTHOFLAVONE, Method: PREINCUBATION): inactive; negative
- mutagenic call (Test System: AMES SALMONELLA TYPHIMURIUM, Strain/Indicator: TA1535, Metabolic Activation: RAT, LIVER, S-9, AROCLOR 1254 (10%), Method: PREINCUBATION): inactive; negative
- mutagenic call (Test System: AMES SALMONELLA TYPHIMURIUM, Strain/Indicator: TA1535, Metabolic Activation: RAT, LIVER, S-9, AROCLOR 1254, Method: STANDARD PLATE): inactive; negative
- mutagenic call (Test System: AMES SALMONELLA TYPHIMURIUM, Strain/Indicator: TA1537, Metabolic Activation: HAMSTER, LIVER, S-9, AROCLOR 1254 (10%), Method: PREINCUBATION): inactive; negative
- mutagenic call (Test System: AMES SALMONELLA TYPHIMURIUM, Strain/Indicator: TA1537, Metabolic Activation: NONE, Method: FLUCTUATION (MICROTITER)): inactive; negative
- mutagenic call (Test System: AMES SALMONELLA TYPHIMURIUM, Strain/Indicator: TA1537, Metabolic Activation: NONE, Method: PREINCUBATION): inactive; negative
- mutagenic call (Test System: AMES SALMONELLA TYPHIMURIUM, Strain/Indicator: TA1537, Metabolic Activation: NONE, Method: STANDARD PLATE): inactive; negative
- mutagenic call (Test System: AMES SALMONELLA TYPHIMURIUM, Strain/Indicator: TA1537, Metabolic Activation: RAT LIVER S-9, AROCLOR 1254, Method: FLUCTUATION (MICROTITER)): inactive; negative
- mutagenic call (Test System: AMES SALMONELLA TYPHIMURIUM, Strain/Indicator: TA1537, Metabolic Activation: RAT LIVER S-9, PHENOBARBITAL AND BETA-NAPHTHOFLAVONE, Method: PREINCUBATION): inactive; negative
- mutagenic call (Test System: AMES SALMONELLA TYPHIMURIUM, Strain/Indicator: TA1537, Metabolic Activation: RAT, LIVER, S-9, AROCLOR 1254 (10%), Method: PREINCUBATION): inactive; negative
- mutagenic call (Test System: AMES SALMONELLA TYPHIMURIUM, Strain/Indicator: TA1537, Metabolic Activation: RAT, LIVER, S-9, AROCLOR 1254, Method: STANDARD PLATE): inactive; negative
- mutagenic call (Test System: AMES SALMONELLA TYPHIMURIUM, Strain/Indicator: TA1538, Metabolic Activation: NONE, Method: STANDARD PLATE): inactive; negative
- mutagenic call (Test System: AMES SALMONELLA TYPHIMURIUM, Strain/Indicator: TA1538, Metabolic Activation: RAT, LIVER, S-9, AROCLOR 1254, Method: STANDARD PLATE): inactive; negative
- mutagenic call (Test System: AMES SALMONELLA TYPHIMURIUM, Strain/Indicator: TA2638, Metabolic Activation: RAT LIVER S-9, PHENOBARBITAL AND 5,6-BENZOFLAVONE, Method: STANDARD PLATE): inactive; negative
- mutagenic call (Test System: AMES SALMONELLA TYPHIMURIUM, Strain/Indicator: TA7001, Metabolic Activation: NONE, Method: FLUCTUATION (MICROTITER)): inactive; negative
- mutagenic call (Test System: AMES SALMONELLA TYPHIMURIUM, Strain/Indicator: TA7001, Metabolic Activation: RAT LIVER S-9, AROCLOR 1254, Method: FLUCTUATION (MICROTITER)): inactive; negative
- mutagenic call (Test System: AMES SALMONELLA TYPHIMURIUM, Strain/Indicator: TA7002, Metabolic Activation: NONE, Method: FLUCTUATION (MICROTITER)): inactive; negative
- mutagenic call (Test System: AMES SALMONELLA TYPHIMURIUM, Strain/Indicator: TA7002, Metabolic Activation: RAT LIVER S-9, AROCLOR 1254, Method: FLUCTUATION (MICROTITER)): inactive; negative
- mutagenic call (Test System: AMES SALMONELLA TYPHIMURIUM, Strain/Indicator: TA7003, Metabolic Activation: NONE, Method: FLUCTUATION (MICROTITER)): inactive; negative
- mutagenic call (Test System: AMES SALMONELLA TYPHIMURIUM, Strain/Indicator: TA7003, Metabolic Activation: RAT LIVER S-9, AROCLOR 1254, Method: FLUCTUATION (MICROTITER)): inactive; negative
- mutagenic call (Test System: AMES SALMONELLA TYPHIMURIUM, Strain/Indicator: TA7004, Metabolic Activation: NONE, Method: FLUCTUATION (MICROTITER)): inactive; negative
- mutagenic call (Test System: AMES SALMONELLA TYPHIMURIUM, Strain/Indicator: TA7004, Metabolic Activation: RAT LIVER S-9, AROCLOR 1254, Method: FLUCTUATION (MICROTITER)): inactive; negative
- mutagenic call (Test System: AMES SALMONELLA TYPHIMURIUM, Strain/Indicator: TA7005, Metabolic Activation: NONE, Method: FLUCTUATION (MICROTITER)): inactive; negative
- mutagenic call (Test System: AMES SALMONELLA TYPHIMURIUM, Strain/Indicator: TA7005, Metabolic Activation: RAT LIVER S-9, AROCLOR 1254, Method: FLUCTUATION (MICROTITER)): inactive; negative
- mutagenic call (Test System: AMES SALMONELLA TYPHIMURIUM, Strain/Indicator: TA7006, Metabolic Activation: NONE, Method: FLUCTUATION (MICROTITER)): inactive; negative
- mutagenic call (Test System: AMES SALMONELLA TYPHIMURIUM, Strain/Indicator: TA7006, Metabolic Activation: RAT LIVER S-9, AROCLOR 1254, Method: FLUCTUATION (MICROTITER)): inactive; negative
- mutagenic call (Test System: E. COLI, Strain/Indicator: WP2 (PKM101), Metabolic Activation: RAT LIVER S-9, PHENOBARBITAL, AND 5,6-BENZOFLAVONE, Method: STANDARD PLATE): inactive; negative
- mutagenic call (Test System: E. COLI, Strain/Indicator: WP2 UVRA (PKM101), Metabolic Activation: RAT LIVER S-9, PHENOBARBITAL AND 5,6-BENZOFLAVONE, Method: STANDARD PLATE): inactive; negative
- mutagenic call (Test System: E.COLI, Strain/Indicator: WP2UVRA, Metabolic Activation: NONE, Method: PREINCUBATION): inactive; negative
- mutagenic call (Test System: E.COLI, Strain/Indicator: WP2UVRA, Metabolic Activation: RAT LIVER S-9, PHENOBARBITAL AND BETA-NAPHTHOFLAVONE, Method: PREINCUBATION): inactive; negative
- mutagenic call (Test System: MOUSE LYMPHOMA, Strain/Indicator: L5178Y (TK+/+)/OUABAIN, Metabolic Activation: NONE, Method: SUSPENSION/PLATE): inactive; negative
- mutagenic call (Test System: MOUSE LYMPHOMA, Strain/Indicator: L5178Y (TK+/+)/OUABAIN, Metabolic Activation: RAT LIVER S-9, AROCLOR 1254, Method: SUSPENSION/PLATE): inactive; negative
- mutagenic call (Test System: MOUSE LYMPHOMA, Strain/Indicator: L5178Y (TK+/-)/TRIFLUROTHYMIDINE, Metabolic Activation: NONE, Method: SUSPENSION/PLATE): inactive; negative
- mutagenic call (Test System: MOUSE LYMPHOMA, Strain/Indicator: L5178Y (TK+/-)/TRIFLUROTHYMIDINE, Metabolic Activation: RAT LIVER S-9, AROCLOR 1254, Method: SUSPENSION/PLATE): inactive; negative
- mutagenic call (Test System: MOUSE LYMPHOMA, Strain/Indicator: L5178Y (TK+/TK-), Metabolic Activation: NONE, Method: SUSPENSION/PLATE): inactive; negative
- mutagenic call (Test System: MOUSE LYMPHOMA, Strain/Indicator: L5178Y (TK+/TK-), Metabolic Activation: RAT, LIVER, S-9, AROCLOR 1254, Method: SUSPENSION/PLATE): active; positive
- mutagenic call (Test System: MOUSE LYMPHOMA, Strain/Indicator: L5178Y (TK+/TK-), Metabolic Activation: RAT, LIVER, S-9, Method: SUSPENSION/PLATE): inactive; negative
- mutagenic call (Test System: UDS RAT HEPATOCYTES, Strain/Indicator: THY INCORP, Metabolic Activation: NONE, Method: LIQUID SCINTILLATION COUNTING): active; positive
